In patent US9096624B2 (OSI Pharmaceuticals, LLC, priority 2009, dated 2015):
Where “and” joins values, the source holds several entries; their conditions need not be identical. Equal entries are not always repeated. Blank lines part the entries; values can stand above or below the molecule they belong to.

Tests used:
[1] = biological target: T1, FAK (Homo sapiens, UniProt Q05397); test: biochemical
[2] = biological target: T1, FAK; test: Cell-based capture ELISA for inhibition of FAK autophosphorylation [pY397] in U87MG cells
[3] = biological target: T1, FAK; test: Cell-based capture ELISA for inhibition of FAK autophosphorylation [pY397] in MiaPaCa2 cells
Protocol: Cell-Based Assays for Inhibition of FAK Autophosphorylation: MiaPaCa2 and U87MG
ELISA kit from Invitrogen (KHO0441).
Reagents Provided in Biosource FAK [pY397]
The cells were then suspended in cell assay medium.

[4] = Mean FAK Cell Mechanistic IC50 + 50% mP U87MG, + 50% mouse plasma
[5] = U87MG FAK Cell Mech IC50 +hP, + human plasma
[6] = U87MG FAK Cell Mech IC50 +mP, + mouse plasma
[7] = MIA-PaCa2 cells, + 50% mouse plasma (Table 3), read-out: Mean FAK Cell Mechanistic IC50 + 50% mP MIA-PaCa2
[8] = MIA-PaCa2 cells on fibronectin, 2 h, no plasma, read-out: Mean FAK Cell Mechanistic IC50 MIA-PaCa2

T1 sequence (Q05397 whole entry): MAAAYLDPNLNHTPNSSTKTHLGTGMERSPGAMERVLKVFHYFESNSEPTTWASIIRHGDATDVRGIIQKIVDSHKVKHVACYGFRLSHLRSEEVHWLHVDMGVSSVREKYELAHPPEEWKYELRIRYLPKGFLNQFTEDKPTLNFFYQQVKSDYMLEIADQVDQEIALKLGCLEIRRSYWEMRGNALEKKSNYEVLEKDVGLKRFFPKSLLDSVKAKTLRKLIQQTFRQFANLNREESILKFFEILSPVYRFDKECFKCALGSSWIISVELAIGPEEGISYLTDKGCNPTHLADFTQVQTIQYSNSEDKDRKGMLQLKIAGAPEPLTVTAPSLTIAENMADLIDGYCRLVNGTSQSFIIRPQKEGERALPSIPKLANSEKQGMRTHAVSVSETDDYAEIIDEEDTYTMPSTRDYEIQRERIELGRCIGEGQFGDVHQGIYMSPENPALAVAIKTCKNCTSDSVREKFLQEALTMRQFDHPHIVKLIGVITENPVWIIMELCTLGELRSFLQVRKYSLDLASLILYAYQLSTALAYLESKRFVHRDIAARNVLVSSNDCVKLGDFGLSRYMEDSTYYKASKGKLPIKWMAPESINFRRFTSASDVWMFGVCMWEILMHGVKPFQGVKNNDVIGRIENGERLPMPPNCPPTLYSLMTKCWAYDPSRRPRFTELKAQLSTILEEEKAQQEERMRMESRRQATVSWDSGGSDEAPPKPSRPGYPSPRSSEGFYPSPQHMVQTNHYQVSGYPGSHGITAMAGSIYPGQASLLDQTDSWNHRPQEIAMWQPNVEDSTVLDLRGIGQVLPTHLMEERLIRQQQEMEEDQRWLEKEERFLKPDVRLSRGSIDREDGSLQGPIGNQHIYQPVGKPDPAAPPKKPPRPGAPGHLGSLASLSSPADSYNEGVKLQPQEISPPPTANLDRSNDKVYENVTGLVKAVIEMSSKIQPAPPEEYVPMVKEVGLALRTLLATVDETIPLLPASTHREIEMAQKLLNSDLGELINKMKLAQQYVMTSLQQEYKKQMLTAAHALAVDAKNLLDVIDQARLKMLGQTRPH

SMILES: CCOP(=O)(Cc1ccc(Nc2ncc(C(F)(F)F)c(Nc3ccc(N4CCC(C(=O)O)CC4)c4c3C(=O)N(C)C4)n2)c(OC)c1)OCC [Example 256, 1-(7-{[2-({4-[(Diethoxyphosphoryl)methyl]-2-methoxyphenyl}amino)-5-(trifluoromethyl)pyrimidin-4-yl]amino}-2-methyl-1-oxo-2,3-dihydro-1H-isoindol-4-yl)piperidine-4-carboxylic acid]
- IC50 [1]: < 1000 nM
- IC50 [2, 4]: < 1000 nM

SMILES: CCOP(=O)(Cc1ccc(Nc2ncc(C(F)(F)F)c(Nc3ccc([C@H]4CC[C@@H](C(=O)O)CC4)c4c3C(=O)N(C)C4)n2)cn1)OCC [Example 267, cis-4-(7-{[2-({6-[(Diethoxyphosphoryl)methyl]pyridin-3-yl}amino)-5-(trifluoromethyl)pyrimidin-4-yl]amino}-2-methyl-1-oxo-2,3-dihydro-1H-isoindol-4-yl)cyclohexanecarboxylic acid]
- IC50 [1]: > 10000 nM
- IC50 [2, 4]: 1000 to 10000 nM

SMILES: CCOP(=O)(Cc1ccc(Nc2ncc(C(F)(F)F)c(Nc3ccc(-c4ccc(C(=O)O)cc4)c4c3C(=O)N(C)C4)n2)c(OC)c1)OCC [Example 270, 4-(7-{[2-({4-[(diethoxyphosphoryl)methyl]-2-methoxyphenyl}amino)-5-(trifluoromethyl)pyrimidin-4-yl]amino}-2-methyl-1-oxo-2,3-dihydro-1H-isoindol-4-yl)benzoic acid]
- IC50 [1]: < 1000 nM
- IC50 [2, 4]: 1000 to 10000 nM

SMILES: CCOP(=O)(Cc1ccc(Nc2ncc(C(F)(F)F)c(Nc3ccc(C4=CCN(C)CC4)c4c3C(=O)N(C)C4)n2)c(OC)c1)OCC [Example 264, Diethyl (3-methoxy-4-{[4-{[2-methyl-7-(1-methyl-1,2,3,6-tetrahydropyridin-4-yl)-3-oxo-2,3-dihydro-1H-isoindol-4-yl]amino}-5-(trifluoromethyl)pyrimidin-2-yl]amino}benzyl)phosphonate]
- IC50 [1]: < 1000 nM
- IC50 [2, 4]: < 1000 nM

SMILES: CCOP(=O)(Cc1ccc(Nc2ncc(C(F)(F)F)c(Nc3ccc([C@H]4CC[C@@H](C(=O)NO)CC4)c4c3C(=O)N(C)C4)n2)c(OC)c1)OCC [Example 275, Diethyl (4-{[4-({7-[cis-4-(hydroxycarbamoyl)cyclohexyl]-2-methyl-3-oxo-2,3-dihydro-1H-isoindol-4-yl}amino)-5-(trifluoromethyl)pyrimidin-2-yl]amino}-3-methoxybenzyl)phosphonate]
- IC50 [1]: < 1000 nM
- IC50 [2, 4]: < 1000 nM

SMILES: CCOP(=O)(Cc1ccc(Nc2ncc(C(F)(F)F)c(Nc3ccc([C@H]4CC[C@@](C)(C(=O)O)CC4)c4c3C(=O)N(C)C4)n2)c(OC)c1)OCC [Example 284, cis-4-(7-{[2-({4-[(Diethoxyphosphoryl)methyl]-2-methoxyphenyl}amino)-5-(trifluoromethyl)pyrimidin-4-yl]amino}-2-methyl-1-oxo-2,3-dihydro-1H-isoindol-4-yl)-1-methylcyclohexanecarboxylic acid]
- IC50 [1]: < 1000 nM
- IC50 [2, 4]: < 1000 nM

SMILES: CCOP(=O)(Cc1ccc(Nc2ncc(C(F)(F)F)c(Nc3ccc([C@H]4CC[C@@](C(=O)O)(N(C)C)CC4)c4c3C(=O)N(C)C4)n2)c(OC)c1)OCC [Example 285, cis-4-(7-{[2-({4-[(diethoxyphosphoryl)methyl]-2-methoxyphenyl}amino)-5-(trifluoromethyl)pyrimidin-4-yl]amino}-2-methyl-1-oxo-2,3-dihydro-1H-isoindol-4-yl)-1-(dimethylamino)cyclohexanecarboxylic acid]
- IC50 [1]: < 1000 nM
- IC50 [2, 4]: < 1000 nM

SMILES: CCOP(=O)(Cc1ccc(Nc2ncc(C(F)(F)F)c(Nc3ccc([C@H]4CC[C@@H](C(=O)OCCN(C)C)CC4)c4c3C(=O)N(C)C4)n2)c(OC)c1)OCC [Example 274, 2-(Dimethylamino)ethyl cis-4-(7-{[2-({4-[(diethoxyphosphoryl)methyl]-2-methoxyphenyl}amino)-5-(trifluoromethyl)pyrimidin-4-yl]amino}-2-methyl-1-oxo-2,3-dihydro-1H-isoindol-4-yl)cyclohexanecarboxylate]
- IC50 [1]: < 1000 nM
- IC50 [2, 4]: < 1000 nM

SMILES: CCOP(=O)(Cc1ccc(Nc2ncc(C(F)(F)F)c(Nc3ccc([C@H]4CC[C@@H](C#N)CC4)c4c3C(=O)N(C)C4)n2)c(OC)c1)OCC [Example 283, Diethyl (4-{[4-{[7-(cis-4-cyanocyclohexyl)-2-methyl-3-oxo-2,3-dihydro-1H-isoindol-4-yl]amino}-5-(trifluoromethyl)pyrimidin-2-yl]amino}-3-methoxybenzyl)phosphonate]
- IC50 [1]: < 1000 nM
- IC50 [2, 4]: < 1000 nM

SMILES: CCOP(=O)(Cc1ccc(Nc2ncc(C(F)(F)F)c(Nc3ccc([C@H]4CC[C@@H](C(=O)O)CC4)c4[nH]cc(C)c(=O)c34)n2)c(OC)c1)OCC [Example 306, Cis-4-(5-{[2-({4-[(diethoxyphosphoryl)methyl]-2-methoxyphenyl}amino)-5-(trifluoromethyl)pyrimidin-4-yl]amino}-3-methyl-4-oxo-1,4-dihydroquinolin-8-yl)cyclohexanecarboxylic acid]
- IC50 [1]: < 1000 nM
- IC50 [2, 4]: < 1000 nM

SMILES: CCOP(=O)(Cc1ccc(Nc2ncc(C(F)(F)F)c(Nc3ccccc3C(=O)O)n2)c(OC)c1)OCC [Example 290, 2-{[2-({4-[(Diethoxyphosphoryl)methyl]-2-methoxyphenyl}amino)-5-(trifluoromethyl)pyrimidin-4-yl]amino}benzoic acid]
- IC50 [2, 4]: 1000 to 10000 nM

- IC50 [2, 5]: > 4000 nM
- IC50 [2, 6]: 3.69 µM and > 4 µM (3×)
SMILES: COc1cc(P(C)(C)=O)ccc1Nc1ncc(Cl)c(Nc2ccccc2C(=O)NC(C)C)n1 [Cpd A, reference compound]

SMILES: CCOP(=O)(Cc1ccc(Nc2ncc(C(F)(F)F)c(Nc3ccc([C@H]4CC[C@@](C)(O)CC4)c4c3C(=O)N(C)C4)n2)cc1)OCC [Example 184, Diethyl (4-{[4-{[7-(cis-4-hydroxy-4-methylcyclohexyl)-2-methyl-3-oxo-2,3-dihydro-1H-isoindol-4-yl]amino}-5-(trifluoromethyl)pyrimidin-2-yl]amino}benzyl) phosphonate]
- IC50 [3, 7]: < 1000 nM
- IC50 [1]: < 1000 nM

SMILES: CCOP(=O)(Cc1ccc(Nc2ncc(C(F)(F)F)c(Nc3ccccc3C(=O)NC)n2)c(Cl)c1)OCC [Example 104, Diethyl (3-chloro-4-{[4-{[2-(methylcarbamoyl)phenyl]amino}-5-(trifluoromethyl)pyrimidin-2-yl]amino}benzyl)phosphonate]
- IC50 [3, 7]: < 1000 nM
- IC50 [1]: < 1000 nM

SMILES: CCOP(=O)(Cc1ccc(Nc2ncc(C(F)(F)F)c(Nc3ccc(N4CCCC4)c4c3C(=O)N(C)C4)n2)c(OC)c1)OCC [Example 83, Diethyl (3-methoxy-4-{[4-{[2-methyl-3-oxo-7-(pyrrolidin-1-yl)-2,3-dihydro-1H-isoindol-4-yl]amino}-5-(trifluoromethyl)pyrimidin-2-yl]amino}benzyl)phosphonate]
- IC50 ([3]; MIA-PaCa2 cells, + 50% mouse plasma (Table 2), read-out: Mean FAK Cell Mechanistic IC50 + 50% mP MIA-PaCa2): < 1000 nM
- IC50 [1]: < 1000 nM

SMILES: CCOP(=O)(Cc1ccccc1Nc1ncc(C(F)(F)F)c(NCc2cccnc2N(C)S(C)(=O)=O)n1)OCC [Example 3, Diethyl [2-({4-[({2-[methyl(methylsulfonyl)amino]pyridin-3-yl}methyl)amino]-5-(trifluoromethyl)pyrimidin-2-yl}amino)benzyl]phosphonate]
- IC50 [3, 8]: > 10000 nM
- IC50 ([3]; MIA-PaCa2 cells, + 50% human plasma, read-out: Mean FAK Cell Mechanistic IC50 + 50% hP MIA-PaCa2): > 10000 nM
- IC50 [1]: < 1000 nM

SMILES: CCOP(C)(=O)Cc1ccc(Nc2ncc(C(F)(F)F)c(Nc3ccc(C(C)C)c4c3C(=O)N(C)C4)n2)cc1 (centres unmarked) [Example 78, Ethyl methyl(4-{[4-{[2-methyl-3-oxo-7-(propan-2-yl)-2,3-dihydro-1H-isoindol-4-yl]amino}-5-(trifluoromethyl)pyrimidin-2-yl]amino}benzyl)phosphinate]
- IC50 [3, 8]: < 1000 nM
- IC50 [1]: < 1000 nM

SMILES: CCOP(=O)(Cc1ccc(Nc2ncc(C(F)(F)F)c(Nc3cc(F)ccc3C(=O)NC)n2)c(OC)c1)OCC [Example 103, Diethyl (4-{[4-{[5-fluoro-2-(methylcarbamoyl)phenyl]amino}-5-(trifluoromethyl)pyrimidin-2-yl]amino}-3-methoxybenzyl)phosphonate]
- IC50 [3, 7]: < 1000 nM
- IC50 [1]: < 1000 nM

SMILES: CCOP(=O)(Cc1ccc(Nc2ncc(C(F)(F)F)c(Nc3ccc(-c4cnn([C@H]5CC[C@H](O)CC5)c4)cc3C(=O)NC)n2)cc1)OCC [Example 137, Diethyl (4-{[4-({4-[1-(trans-4-hydroxycyclohexyl)-1H-pyrazol-4-yl]-2-(methylcarbamoyl)phenyl}amino)-5-(trifluoromethyl)pyrimidin-2-yl]amino}benzyl)phosphonate]
- IC50 [3, 7]: 1000 to 10000 nM
- IC50 [1]: < 1000 nM

- IC50 [2, 5]: > 4000 nM
- IC50 [2, 6]: 257 nM and 540 nM
SMILES: COc1cc(P(C)(C)=O)ccc1Nc1ncc(Cl)c(Nc2cccc3c2C(=O)N(C)C3)n1 [Cpd B, reference compound]

SMILES: CCOc1cc(CP(=O)(OCC)OCC)ccc1Nc1ncc(C(F)(F)F)c(Nc2ccc([C@H]3CC[C@H](C(=O)O)CC3)c3c2C(=O)N(C)C3)n1 [Example 258, Trans-4-(7-{[2-({4-[(diethoxyphosphoryl)methyl]-2-ethoxyphenyl}amino)-5-(trifluoromethyl)pyrimidin-4-yl]amino}-2-methyl-1-oxo-2,3-dihydro-1H-isoindol-4-yl)cyclohexanecarboxylic acid]
- IC50 [3, 7]: < 1000 nM
- IC50 [1]: < 1000 nM

SMILES: CCOP(=O)(Cc1ccc(Nc2ncc(C(F)(F)F)c(Nc3ccc(-c4cnn(C)c4)cc3C(=O)NC)n2)cc1)OCC [Example 125, Diethyl (4-{[4-{[2-(methylcarbamoyl)-4-(1-methyl-1H-pyrazol-4-yl)phenyl]amino}-5-(trifluoromethyl)pyrimidin-2-yl]amino}benzyl)phosphonate]
- IC50 [3, 7]: < 1000 nM
- IC50 [1]: < 1000 nM
